# Data reported in patent publication US20240226072A1 (Stichting Het Nederlands Kanker Instituut, priority 2022, published 2024).
# How the values were obtained:
# in vivo [1] = settings: male, mouse, po, 25 mg/kg, Tmax
# Method: (§1) The Jevtana (10 mg/mL) solution contains 0.26 mg/mL polysorbate 80 and 15% (w/v) ethanol, and is adjusted to pH 2-6 with citric acid. […] The stock solution was further diluted 5-fold with water to reach a 2.5 mg/mL dosing solution for oral administration. The vehicle solution only consists of polysorbate 80, ethanol and water (1:1:8, v/v/v). […] All dosing solutions were prepared freshly on the day of the experiment.
# (§2) At the termination time point of 24 hours, mice were anesthetized using an isoflurane evaporator with 3% isoflurane with 0.8 L/min air and 0.3 L/min oxygen. A final blood sample was taken using cardiac puncture, using Eppendorf tubes previously prepared with heparin as an anticoagulant. Subsequently, the anesthetized mice were sacrificed by cervical dislocation and the tissues of interest were collected. Brain, liver, spleen, kidney, small intestine, and testis were collected. The small intestinal content (SIC) was separately collected by removing this from the small intestinal tissue, which was subsequently rinsed with saline to remove possibly fecal residue. The blood samples were centrifuged at 9,000×g for 6 minutes at 4° C., and the plasma fraction was isolated and stored at −30° C. until analysis. Brain, liver, spleen, kidney, small intestinal tissue, SIC, and testis were homogenized in a FastPrep-24™ 5G homogenizer (M. P. Biomedicals, Santa Ana, CA, USA) for 1 min with 1, 3, 1, 2, 3, 2, and 1 mL of 2% (w/v) BSA in Milli-Q water, respectively. Until analysis of the samples, they were all stored at −30° C.
# (§3) Pharmacokinetic parameters were estimated by non-compartmental analysis using the software package of PK solutions 2.0.2 (SUMMIT, Research Service). The area under the curve (AUC) of the plasma-concentration time curve for all the compounds was calculated using the linear trapezoidal rule without extrapolating to infinity. The peak plasma concentration (Cmax) and the time to reach peak plasma concentration (Tmax) were obtained directly from the individual raw data. For the statistical analysis and the graphs GraphPad Prism 9 (GraphPad Software Inc., La Jolla, CA, USA) was used. The statistics for the comparison of multiple groups were calculated with the one-way analysis of variance (ANOVA), whereas Sidak's post hoc correction was performed. Log-transformation before statistical analysis was applied, when variances within the groups were not homogeneously distributed. Differences were considered statistically significant when P<0.05. All data are presented as geometric mean±SD.
# The last parameter is in many cases the most useful, as it takes the overall exposure into account.
# in vivo [2] = settings: male, mouse, po; for AUC(0-t): AUC0-24 h
# Method: as §1, §2, §3
# [3] = Plasma pharmacokinetics and tissue distribution 2 h after oral cabazitaxel 10 mg/kg with vehicle or 25 mg/kg ritonavir in wild-type, Oatp1a/1b−/−, Oatp1a/1b/2b1−/−, OATP1B1- and OATP1B3-transgenic mice; type: in vivo; settings: ritonavir 25 mg/kg oral, cabazitaxel 10 mg/kg oral; for CLiver / Cbrain / Pbrain, brain accumulation per h / SIC (% of dose), small intestinal content: 2 h; for AUC(0-t) / Cmax / Tmax: male, FVB, mouse, plasma, po, 25 mg/kg; for AUC(0-t): AUC0-[…]
# Method: All animals were fasted 2 to 3 hours prior to the start of the experiment to minimize variation in absorption after oral administration. […] Subsequently, cardiac puncture was performed with a heparinized needle and syringe collecting a final blood sample. […] All samples were stored at −30° C. until analysis.
# Differences were considered statistically significant when P<0.05. All data are presented as geometric mean±SD.
# [4] = input of human simulation, cited from earlier work
structure (smiles),measurement,setting,value
CC(C)c1nc(CN(C)C(=O)N[C@H](C(=O)N[C@@H](Cc2ccccc2)C[C@H](O)[C@H](Cc2ccccc2)NC(=O)OCc2cncs2)C(C)C)cs1 [ritonavir],Tmax,in vivo [1]; Cyp3a−/− (FVB background),2.33 ± 0.82 h
same,Tmax,in vivo [1]; wild-type FVB,2 h
same,AUC(0-t),"in vivo [2]; Cyp3aXAV (human CYP3A in Cyp3a−/−, FVB background), 1 mg/kg",0.000447 ± 0.000766 µM·h
same,AUC(0-t),"in vivo [2]; FVB (wild-type), 1 mg/kg",0.00591 ± 0.0018 µM·h
same,Cmax,"in vivo [2]; FVB, Cyp3aXAV, 1 mg/kg",0.000532 ± 0.00108 µM
same,Tmax,"in vivo [2]; FVB, Cyp3aXAV, 1 mg/kg",1.38 ± 3.25 h
same,AUC(0-t),"in vivo [2]; FVB, Cyp3aXAV, 10 mg/kg",0.075 ± 0.0188 µM·h
same,Cmax,"in vivo [2]; FVB, Cyp3aXAV, 10 mg/kg",0.0829 ± 0.0159 µM
same,Tmax,"in vivo [2]; FVB, Cyp3aXAV, 10 mg/kg",0.25 h
same,Cmax,"in vivo [2]; FVB, wild-type, 1 mg/kg",0.00576 ± 0.00138 µM
same,Tmax,"in vivo [2]; FVB, wild-type, 1 mg/kg",0.33 ± 0.13 h
same,AUC(0-t),"in vivo [2]; FVB, wild-type, 10 mg/kg",1.44 ± 0.529 µM·h
same,Cmax,"in vivo [2]; FVB, wild-type, 10 mg/kg",0.749 ± 0.322 µM
same,Tmax,"in vivo [2]; FVB, wild-type, 10 mg/kg",0.92 ± 0.2 h
same,CLiver,[3]; OATP1B1-transgenic mice,42478 ± 7201 pmol/g
same,Cbrain,[3]; OATP1B1-transgenic mice,277 ± 96.0 pmol/g
same,"Pbrain, brain accumulation per h",[3]; OATP1B1-transgenic mice,0.012 ± 0.002 h⁻¹
same,"SIC (% of dose), small intestinal content",[3]; OATP1B1-transgenic mice,5.81 ± 3.14 % of dose
same,CLiver,[3]; OATP1B3-transgenic mice,45512 ± 4650 pmol/g
same,Cbrain,[3]; OATP1B3-transgenic mice,249 ± 47.9 pmol/g
same,"Pbrain, brain accumulation per h",[3]; OATP1B3-transgenic mice,0.013 ± 0.005 h⁻¹
same,"SIC (% of dose), small intestinal content",[3]; OATP1B3-transgenic mice,4.44 ± 2.65 % of dose
same,CLiver,[3]; Oatp1a/1b/2b1−/− mice,38153 ± 8561 pmol/g
same,Cbrain,[3]; Oatp1a/1b/2b1−/− mice,236 ± 82.5 pmol/g
same,"Pbrain, brain accumulation per h",[3]; Oatp1a/1b/2b1−/− mice,0.014 ± 0.003 h⁻¹
same,"SIC (% of dose), small intestinal content",[3]; Oatp1a/1b/2b1−/− mice,6.03 ± 3.23 % of dose
same,CLiver,[3]; Oatp1a/1b−/− mice,43800 ± 5797 pmol/g
same,Cbrain,[3]; Oatp1a/1b−/− mice,306 ± 45.5 pmol/g
same,"Pbrain, brain accumulation per h",[3]; Oatp1a/1b−/− mice,0.014 ± 0.003 h⁻¹
same,"SIC (% of dose), small intestinal content",[3]; Oatp1a/1b−/− mice,3.84 ± 2.08 % of dose
same,AUC(0-t),[3]; OATP1B1-transgenic mice,14.3 ± 2.02 µM·h
same,AUC(0-t),[3]; OATP1B3-transgenic mice,14.8 ± 1.22 µM·h
same,AUC(0-t),[3]; Oatp1a/1b/2b1−/− mice,13.1 ± 2.14 µM·h
same,AUC(0-t),[3]; Oatp1a/1b−/− mice,16.9 ± 3.95 µM·h
same,AUC(0-t),[3]; wild-type mice,5.96 ± 1.15 µM·h
same,Cmax,[3]; OATP1B1-transgenic mice,8.35 ± 1.3 µM
same,Tmax,[3]; OATP1B1-transgenic mice,1.17 h
same,Cmax,[3]; OATP1B3-transgenic mice,8.67 ± 1.15 µM
same,Tmax,[3]; OATP1B3-transgenic mice,1.33 h
same,Cmax,[3]; Oatp1a/1b/2b1−/− mice,7.74 ± 1.12 µM
same,Tmax,[3]; Oatp1a/1b/2b1−/− mice,1 h
same,Cmax,[3]; Oatp1a/1b−/− mice,11.2 ± 5.21 µM
same,Tmax,[3]; Oatp1a/1b−/− mice,1.21 h
same,Cmax,[3]; wild-type mice,3.62 ± 0.765 µM
same,Tmax,[3]; wild-type mice,0.667 h
same,CLiver,[3]; wild-type mice,44998 ± 6028 pmol/g
same,"Pbrain, brain accumulation per h",[3]; wild-type mice,0.010 ± 0.002 h⁻¹
same,"SIC (% of dose), small intestinal content",[3]; wild-type mice,3.90 ± 2.22 % of dose
same,IIV CL,[4],46.7 CV%
same,CL,[4]; source (18),7.72 L/h
same,IIV CV,[4]; source (18),12.8 CV%
same,IIV F,[4]; source (18),52.2 CV%
same,IIV Vc,[4]; source (18),93.5 CV%
same,IOV CV,[4]; source (18),22.2 CV%
same,IOV MAT,[4]; source (18),32.1 CV%
same,MAT,[4]; source (18),8.45 h
same,Q,[4]; source (18),3.99 L/h
same,V,[4]; source (18),23 L
same,Vp,[4]; source (18),17.9 L
